Source: patent US6423725B1 (dated 2002)
Structures can show the parent of a compound that is named as a salt.

| Compound | melting point |
| --- | --- |
| CC1(C)CCC(c2ccccc2)(N2CCC(n3c(=O)[nH]c4ccccc43)CC2)CC1 (as salt: hydrochloride) | 256 °C |
| O=c1[nH]c2ccccc2n1C1CCN(C2(c3ccccc3)CCCCCCCCCC2)CC1 (as salt: hydrochloride) | 196 to 202 °C |
| O=c1[nH]c2ccccc2n1C1CCN(C2(c3ccccc3)CCCCCCCCCCC2)CC1 (as salt: hydrochloride) | 251 °C |
| COc1ccccc1C1(N2CCC(n3c(=O)[nH]c4ccccc43)CC2)CCCCCC1 (as salt: hydrochloride) | 167 to 173 °C |
| CC(C)(C)C1CCC(c2ccccc2)(N2CCC(n3c(=O)[nH]c4ccccc43)CC2)CC1 (stereo not drawn) (as salt: hydrochloride) | 218 to 219 °C |
| O=C(c1ccccc1)c1ccc2c(c1)[nH]c(=O)n2C1CCN(C2(c3ccccc3)CCCCCC2)CC1 (as salt: hydrochloride) | 118 to 122 °C |
| CCCC1(N2CCC(n3c(=O)[nH]c4ccccc43)CC2)CCC2(CCCCC2)CC1 (as salt: hydrochloride) | 240 to 247 °C |
| CNCCn1c(=O)n(C2CCN(C3(c4ccccc4)CCCCCC3)CC2)c2ccccc21 (as salt: hydrochloride) | 217 °C |
| COc1ccc(C2(N3CCC(n4c(=O)[nH]c5ccccc54)CC3)CCCCC2)cc1 (as salt: hydrochloride) | 193 to 197 °C |

Now from value to molecule:

| melting point | Compound |
| --- | --- |
| 196 °C | O=c1[nH]c2ccccc2n1C1CCN(C2(c3ccccc3)CCCCCCC2)CC1 (as salt: hydrochloride) |
| 187 °C | O=c1[nH]c2ccccc2n1C1CCN(C2(c3ccccc3)CCCCCCCC2)CC1 (as salt: hydrochloride) |
| 217 °C | O=c1[nH]c2ccccc2n1C1CCN(C2(c3ccccc3)CCCCCCCCC2)CC1 (as salt: hydrochloride) |
| 185 to 192 °C | O=c1[nH]c2ccccc2n1C1CCN(C2(c3ccc(F)cc3)CCCCCC2)CC1 (as salt: hydrochloride) |
| 196 to 199 °C | O=c1[nH]c2ccccc2n1C1CCN(C2(c3cccc(F)c3)CCCCCC2)CC1 (as salt: hydrochloride) |
| 216 to 218 °C | COc1cccc(C2(N3CCC(n4c(=O)[nH]c5ccccc54)CC3)CCCCCC2)c1 (as salt: hydrochloride) |
